Drawing on the NIST ThermoML archive (doi:10.1021/je900807v), this text covers refractive index and mass density for eleven molecules.

Series [1] can be described thus: refractive index (Na D-line) (dimensionless). The note with it: 298.15 K; 101.33 kPa; Liquid; Standard Abbe refractometry.
The conditions of series [2]: 298.15 K, 101.33 kPa, Liquid.
Series [3] is described as follows: xn = mol fraction of the nth substance listed. The note with it: 298.15 K, 101 kPa, Liquid.

Numbers after ± are expanded uncertainties.

For orientation: refractive index means a measure of how strongly the sample bends light. One may read the mass density as the mass of a sample divided by its volume. With `CCOS(=O)(=O)[O-].CC[n+]1cccc(C)c1` [1-ethyl-3-methylpyridinium ethylsulfate], the refractive index in series [1] is reported as 1.50591 ± 0.0007. In addition, the mass density in series [2] (Vibrating tube method) is 1219.61 ± 0.42 kg/m3.

Consider `c1ccccc1` [benzene], for which, in series [1], the refractive index was found to be 1.49774 ± 0.00068. Further, the mass density in series [2] turned out to be 873.57 ± 0.17 kg/m3.

Regarding `c1ccccc1` [benzene] + CC1CCCCC1, the mass density in series [3] (x2 = 0) was 873.57 ± 0.17 kg/m3.

Regarding `CCc1ccccc1` [ethylbenzene], the refractive index in series [1] amounted to 1.49304 ± 0.00068. Also, in series [2], the mass density is 862.51 ± 0.18 kg/m3.

`CCc1ccccc1` [ethylbenzene] + CC1CCCCC1: the mass density in series [3] (x2 = 0) was 862.51 ± 0.18 kg/m3.

As for `CC1CCCCC1` [methylcyclohexane], in series [1], the refractive index is 1.42062 ± 0.0007. Also, the mass density in series [2] is given as 765.02 ± 0.36 kg/m3.

With `CC1CCCCC1` [methylcyclohexane] + CCc1ccccc1, the mass density in series [3] (x1 = 0.0494) was 857.22 ± 0.19 kg/m3; in series [3] (x1 = 0.0975), 852.13 ± 0.19 kg/m3; in series [3] (x1 = 0.1983) it was 841.55 ± 0.21 kg/m3; in series [3] (x1 = 0.2981), 831.2 ± 0.23 kg/m3; in series [3] (x1 = 0.4008) it was 820.93 ± 0.25 kg/m3; in series [3] (x1 = 0.5005), 811.01 ± 0.26 kg/m3. Besides, the mass density in series [3] (x1 = 0.6001) was found to be 801.41 ± 0.28 kg/m3; in series [3] (x1 = 0.7006) it was 792.06 ± 0.3 kg/m3; in series [3] (x1 = 0.7952), 783.15 ± 0.32 kg/m3; in series [3] (x1 = 0.8949) it was 774.23 ± 0.34 kg/m3; in series [3] (x1 = 0.9495) it was 769.34 ± 0.35 kg/m3; in series [3] (x1 = 1), 765.02 ± 0.36 kg/m3.

Turning to `CC1CCCCC1` [methylcyclohexane] + Cc1ccccc1, the mass density in series [3] (x1 = 0.05) worked out at 855.9 ± 0.18 kg/m3; in series [3] (x1 = 0.0998), 849.91 ± 0.19 kg/m3; in series [3] (x1 = 0.198), 838.24 ± 0.21 kg/m3; in series [3] (x1 = 0.2951), 827.41 ± 0.22 kg/m3; in series [3] (x1 = 0.3968), 816.83 ± 0.24 kg/m3; in series [3] (x1 = 0.4959) it was 806.9 ± 0.26 kg/m3. Moreover, the mass density worked out at 797.45 ± 0.28 kg/m3 in series [3] (x1 = 0.5973); 788.64 ± 0.3 kg/m3 in series [3] (x1 = 0.697); 780.42 ± 0.32 kg/m3 in series [3] (x1 = 0.7954); 772.71 ± 0.34 kg/m3 in series [3] (x1 = 0.8932); 768.66 ± 0.35 kg/m3 in series [3] (x1 = 0.9487); 765.02 ± 0.36 kg/m3 in series [3] (x1 = 1).

Consider `CC1CCCCC1` [methylcyclohexane] + c1ccccc1, for which the mass density in series [3] (x1 = 0.0504) was found to be 865.01 ± 0.18 kg/m3; in series [3] (x1 = 0.099) it was 857.13 ± 0.19 kg/m3; in series [3] (x1 = 0.1998), 841.92 ± 0.2 kg/m3; in series [3] (x1 = 0.2978) it was 829.01 ± 0.22 kg/m3; in series [3] (x1 = 0.3991) it was 816.54 ± 0.24 kg/m3; in series [3] (x1 = 0.4993), 805.76 ± 0.26 kg/m3. The mass density in series [3] (x1 = 0.598) turned out to be 796.03 ± 0.28 kg/m3; in series [3] (x1 = 0.6991), 787.22 ± 0.3 kg/m3; in series [3] (x1 = 0.7981) it was 779.31 ± 0.32 kg/m3; in series [3] (x1 = 0.8961), 772.04 ± 0.34 kg/m3; in series [3] (x1 = 0.9523), 768.25 ± 0.35 kg/m3; in series [3] (x1 = 1) it was 765.02 ± 0.36 kg/m3.

As to `Cc1ccccc1` [toluene], the refractive index in series [1] came out at 1.49399 ± 0.00068. Besides, the mass density in series [2] was found to be 862.17 ± 0.18 kg/m3.

Regarding `Cc1ccccc1` [toluene] + CC1CCCCC1, the mass density in series [3] (x2 = 0) is 862.17 ± 0.18 kg/m3.
